PubChem BioAssay (NCI)
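96-well plates; 48 h exposure; 5 concentrations. Endpoints by linear interpolation between flanking doses. Not reached: highest tested concentration assigned. The concentration for 50% growth inhibition is given as GI50. TGI marks complete inhibition of growth.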

Key:
Experiment in all cases: growth of human tumour cells (NCI), 48 h
[1] = system: OVCAR-3 ovarian
[2] = system: IGROV1 ovarian
[3] = system: A549 NSCLC
[4] = system: TK-10 renal
[5] = system: EKVX NSCLC
[6] = system: K-562 leukemia
[7] = system: HT29 colon
[8] = system: SW-620 colon
[9] = system: 786-0 renal
[10] = system: HCT-116 colon
[11] = system: SNB-19 CNS
[12] = system: ACHN renal
[13] = system: PC-3 prostate
[14] = system: COLO 205 colon
[15] = system: SK-MEL-2 melanoma
[16] = system: UO-31 renal
[17] = system: M14 melanoma
[18] = system: NCI-H460 lung
[19] = system: HCC-2998 colon
[20] = system: OVCAR-8 ovarian
[21] = system: SK-OV-3 ovarian
[22] = system: HL-60(TB) leukemia
[23] = system: CAKI-1 renal
[24] = system: MDA-MB-435
[25] = system: HS 578T breast
[26] = system: MOLT-4 leukemia
[27] = system: KM12 colon
[28] = system: CCRF-CEM leukemia
[29] = system: SF-268 CNS
[30] = system: SF-295 CNS
[31] = system: NCI-H522 lung
[32] = system: NCI-H23 lung
[33] = system: OVCAR-5 ovarian
[34] = system: T-47D breast
[35] = system: HCT-15 colon
[36] = system: UACC-257 melanoma
[37] = system: SN12C renal
[38] = system: SK-MEL-5 melanoma
[39] = system: NCI/ADR-RES ovarian
[40] = system: SR leukemia
[41] = system: OVCAR-4 ovarian
[42] = system: SK-MEL-28 melanoma
[43] = system: SNB-75 CNS
[44] = system: DU-145 prostate
[45] = system: UACC-62 melanoma
[46] = system: HOP-62 NSCLC
[47] = system: MALME-3M melanoma
[48] = system: SF-539 CNS
[49] = system: RXF 393 renal
[50] = system: U251 CNS
[51] = system: MCF7 breast
[52] = system: HOP-92 NSCLC
[53] = system: LOX IMVI melanoma
[54] = system: MDA-MB-231 breast

In the case of `CSC(=NC#N)S/C=C/C(=O)c1ccc(Cl)cc1`, the TGI [1] was 34.7 µM, the TGI [2] was 44.2 µM and the TGI [3] was > 100 µM. For the same compound, the TGI [4] was 58.5 µM, the TGI [5] was > 100 µM and the TGI [6] was > 100 µM. For the same compound, the TGI [7] was 46.4 µM, the TGI [8] was 40.6 µM and the TGI [9] was 40.8 µM. The TGI [10] was 34.5 µM, the TGI [11] was > 100 µM and the TGI [12] was > 100 µM. For the same compound, the TGI [13] was > 100 µM, the TGI [14] was 71.6 µM and the TGI [15] was 45 µM. For the same compound, the TGI [16] was 45.4 µM, the TGI [17] was 45.1 µM and the TGI [18] was > 100 µM. For the same compound, the TGI [19] was > 100 µM, the TGI [20] was 47.4 µM and the TGI [21] was > 100 µM. For the same compound, the TGI [22] was > 100 µM, the TGI [23] was 35.6 µM and the TGI [24] was 64.3 µM. The TGI [25] was 75.9 µM, the TGI [26] was > 100 µM and the TGI [27] was > 100 µM. For the same compound, the TGI [28] was > 100 µM, the TGI [29] was 62.2 µM and the TGI [30] was 95.5 µM. It also gave a TGI [31] of 38.5 µM, a TGI [32] of 52.4 µM and a TGI [33] of 99.8 µM. The TGI [34] was 75.1 µM, the TGI [35] was > 100 µM and the TGI [36] was 52.2 µM. For the same compound, the TGI [37] was 84.7 µM, the TGI [38] was 32.7 µM and the TGI [39] was 63.1 µM. For the same compound, the TGI [40] was 12.6 µM, the TGI [41] was > 100 µM and the TGI [42] was 46.5 µM. The TGI [43] was > 100 µM, the TGI [44] was > 100 µM and the TGI [45] was 74.4 µM. For the same compound, the TGI [46] was > 100 µM, the TGI [47] was 55.5 µM and the TGI [48] was 52.3 µM. The TGI [49] was 42.4 µM, the TGI [50] was > 100 µM and the TGI [51] was 79.3 µM. For the same compound, the TGI [52] was > 100 µM.
Work on `CCC(=O)OC1CCC2C3CCC(=O)OC3C(C)(CCC(=O)O)CC12C` (stereo not drawn) yielded a GI50 [1] of 2.16 µM, a TGI [1] of 10.5 µM and a GI50 [2] of 2.47 µM. The TGI [2] was 16.2 µM, the GI50 [3] was 3.81 µM and the TGI [3] was > 100 µM. For the same compound, the GI50 [4] was 3.46 µM, the TGI [4] was 21.9 µM and the GI50 [5] was 2.08 µM. For the same compound, the TGI [5] was > 100 µM, the GI50 [7] was 3.86 µM and the TGI [7] was > 100 µM. For the same compound, the GI50 [8] was 2.87 µM, the TGI [8] was > 100 µM and the GI50 [9] was 5.49 µM. For the same compound, the TGI [9] was > 100 µM, the GI50 [10] was 3.62 µM and the TGI [10] was > 100 µM. For the same compound, the GI50 [12] was 4.74 µM, the TGI [12] was > 100 µM and the GI50 [13] was 2.36 µM. For the same compound, the TGI [13] was > 100 µM, the GI50 [14] was 3.48 µM and the TGI [14] was 69.1 µM. The GI50 [15] was 1.86 µM, the TGI [15] was > 100 µM and the GI50 [53] was 3.87 µM. For the same compound, the TGI [53] was > 100 µM, the GI50 [16] was 0.494 µM and the TGI [16] was > 100 µM. The GI50 [17] was 3.59 µM, the TGI [17] was > 100 µM and the GI50 [18] was 2.04 µM. For the same compound, the TGI [18] was > 100 µM, the GI50 [19] was 3.53 µM and the TGI [19] was > 100 µM. The GI50 [20] was 3.49 µM, the TGI [20] was > 100 µM and the GI50 [21] was 2.47 µM. For the same compound, the TGI [21] was > 100 µM, the GI50 [23] was 3.22 µM and the TGI [23] was 15.9 µM. The GI50 [24] was 2.24 µM, the TGI [24] was 13.2 µM and the GI50 [25] was 1.63 µM. The TGI [25] was 7.93 µM, the GI50 [27] was 2.59 µM and the TGI [27] was > 100 µM. The GI50 [28] was 0.374 µM, the TGI [28] was > 100 µM and the GI50 [29] was 3.6 µM. The TGI [29] was > 100 µM, the GI50 [30] was 1.16 µM and the TGI [30] was 2.68 µM. The GI50 [31] was 2.08 µM, the TGI [31] was > 100 µM and the GI50 [32] was 3.35 µM. For the same compound, the TGI [32] was > 100 µM, the GI50 [33] was 5.6 µM and the TGI [33] was > 100 µM. For the same compound, the GI50 [34] was 0.929 µM, the TGI [34] was 6.16 µM and the GI50 [35] was 2.83 µM. For the same compound, the TGI [35] was > 100 µM, the GI50 [36] was 5.73 µM and the TGI [36] was > 100 µM. The GI50 [38] was 3.9 µM, the TGI [38] was > 100 µM and the GI50 [39] was 2.54 µM. For the same compound, the TGI [39] was > 100 µM, the GI50 [41] was 6.61 µM and the TGI [41] was > 100 µM. The GI50 [42] was 3.81 µM, the TGI [42] was > 100 µM and the GI50 [43] was 2.87 µM. For the same compound, the TGI [43] was > 100 µM, the GI50 [44] was 3.59 µM and the TGI [44] was 19.1 µM. The GI50 [45] was 3 µM, the TGI [45] was > 100 µM and the GI50 [46] was 7.49 µM. The TGI [46] was > 100 µM, the GI50 [47] was 2.76 µM and the TGI [47] was > 100 µM. The GI50 [48] was 2.1 µM, the TGI [48] was 17.4 µM and the GI50 [49] was 0.617 µM. The TGI [49] was > 100 µM, the GI50 [50] was 3.11 µM and the TGI [50] was 45.3 µM. For the same compound, the GI50 [51] was 1.61 µM, the TGI [51] was > 100 µM and the GI50 [54] was 1.45 µM. The TGI [54] was 6.28 µM, the GI50 [52] was 0.997 µM and the TGI [52] was 4.76 µM.
